Experimental data as given in BigSolDB 2.1.

N[C@@H](C(=O)O)c1ccc(O)cc1
Conditions | solubility (mole fraction)
in DMF, 278.27 K | 1.99e-05
in DMF, 283.23 K | 2.39e-05
in DMF, 288.18 K | 2.67e-05
in DMF, 293.2 K | 3.38e-05
in DMF, 298.39 K | 4.03e-05
in DMF, 303.18 K | 4.93e-05
in DMF, 308.26 K | 6e-05
in DMF, 313.2 K | 7.04e-05
in DMF, 318.39 K | 8.68e-05
in DMF, 323.15 K | 0.000102
in ethanol, 278.28 K | 9.26e-05
in ethanol, 283.42 K | 9.3e-05
in ethanol, 288.18 K | 9.34e-05
in ethanol, 293.24 K | 9.37e-05
in ethanol, 298.38 K | 9.4e-05
in ethanol, 303.17 K | 9.42e-05
in ethanol, 308.39 K | 9.43e-05
in ethanol, 313.19 K | 9.44e-05
in ethanol, 318.37 K | 9.45e-05
in ethanol, 323.26 K | 9.45e-05
in methanol, 278.17 K | 0.00042
in methanol, 283.22 K | 0.000421
in methanol, 288.21 K | 0.000421
in methanol, 293.28 K | 0.000423
in methanol, 298.24 K | 0.000424
in methanol, 303.32 K | 0.000425
in methanol, 308.2 K | 0.000426
in methanol, 313.26 K | 0.000427
in methanol, 318.27 K | 0.000429
in methanol, 323.25 K | 0.00043
in tetrachloromethane, 278.38 K | 0.000225
in tetrachloromethane, 283.23 K | 0.000227
in tetrachloromethane, 288.38 K | 0.000231
in tetrachloromethane, 293.36 K | 0.000234
in tetrachloromethane, 298.29 K | 0.000239
in tetrachloromethane, 303.21 K | 0.000244
in tetrachloromethane, 308.36 K | 0.00025
in tetrachloromethane, 313.3 K | 0.000258
in tetrachloromethane, 318.24 K | 0.000264
in tetrachloromethane, 323.19 K | 0.000272
in toluene, 278.28 K | 0.000157
in toluene, 283.33 K | 0.000164
in toluene, 288.38 K | 0.000165
in toluene, 293.32 K | 0.000172
in toluene, 298.23 K | 0.000175
in toluene, 303.32 K | 0.00018
in toluene, 308.39 K | 0.000189
in toluene, 313.37 K | 0.000195
in toluene, 318.17 K | 0.000205
in toluene, 323.27 K | 0.000216
in water, 278.27 K | 0.0018
in water, 283.25 K | 0.00186
in water, 288.37 K | 0.00194
in water, 293.17 K | 0.00203
in water, 298.26 K | 0.00215
in water, 303.29 K | 0.00229
in water, 308.26 K | 0.00244
in water, 313.28 K | 0.00261
in water, 318.17 K | 0.00279
in water, 323.21 K | 0.00299
